Assay results from patent US6897209B2, “Labelled factor XIIIa substrates” (GE Healthcare Limited, priority 1997, dated 2005).

Legend:
human plasma clots [1] = target: T1, human plasma clots (Homo sapiens, UniProt P00488); experiment: Incorporation into human plasma clots (in vitro plasma clot assay); type: biochemical; conditions: for % specific uptake*: % retained with thrombin − % retained no thrombin; for % retained in plasma clot assay (with thrombin): human plasma with thrombin and calcium chloride, 60 minutes, ca. 20° C.
T1 construct: Factor XIII is transformed into its active form Factor XIIIa by thrombin in the presence of calcium ions; from tissue; host or cells: human plasma, clotted in vitro with thrombin and calcium chloride
T1 sequence (P00488 39-732): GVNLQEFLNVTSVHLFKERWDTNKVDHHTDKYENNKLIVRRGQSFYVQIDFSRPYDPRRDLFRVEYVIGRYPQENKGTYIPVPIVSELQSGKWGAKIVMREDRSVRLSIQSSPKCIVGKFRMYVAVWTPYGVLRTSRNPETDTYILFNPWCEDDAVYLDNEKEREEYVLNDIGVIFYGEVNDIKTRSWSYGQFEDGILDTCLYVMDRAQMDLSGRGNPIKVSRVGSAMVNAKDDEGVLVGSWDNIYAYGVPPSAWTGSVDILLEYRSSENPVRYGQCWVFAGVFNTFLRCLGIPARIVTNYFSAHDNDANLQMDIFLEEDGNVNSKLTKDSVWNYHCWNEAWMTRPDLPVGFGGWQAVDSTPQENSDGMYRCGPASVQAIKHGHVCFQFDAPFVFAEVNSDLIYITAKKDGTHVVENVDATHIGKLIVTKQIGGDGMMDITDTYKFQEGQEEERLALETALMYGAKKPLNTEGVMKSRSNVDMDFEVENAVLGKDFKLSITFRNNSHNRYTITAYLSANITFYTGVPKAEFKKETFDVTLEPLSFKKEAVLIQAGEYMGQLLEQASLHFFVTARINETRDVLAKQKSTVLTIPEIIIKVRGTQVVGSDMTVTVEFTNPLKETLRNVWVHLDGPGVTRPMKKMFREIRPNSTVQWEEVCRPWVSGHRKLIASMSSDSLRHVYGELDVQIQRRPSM

human plasma clots [2] = experiment: as above; type: biochemical; conditions: control vials without thrombin and calcium chloride, 60 minutes
[3] = tested on: clots induced in rat inferior vena cava; experiment: Incorporation into clots induced in a rat model (rat inferior vena cava model); type: in vivo; conditions: rat IVC model; for Clot/Blood / Clot/Heart / Clot/Liver / Clot/Lung: 60 min; for % ID/g (clot uptake) / Relative conc (cpm/g of clot by dose/g animal): compound injected 5 min post-induction, clot removed after 60 min
Summary of the method: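 Male Wistar rats (250-350 g) were anaesthetised with 15% urethane, and compounds were injected 5 min after clot induction. Animals were killed at 60 min, and clots (about 27 mg) and tissues were weighed and counted. Uptake was given as cpm/g clot by dose/g animal and as clot-to-background ratios.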

Factor XIIIa = target: T2, Factor XIIIa (Homo sapiens, UniProt P00488); experiment: Factor XIIIa dependency of incorporation (dimethylcasein uptake, normal vs Factor XIII deficient plasma); type: biochemical; conditions: 1 KBq/ml, 60 minutes; uptake in normal plasma minus Factor XIII deficient plasma
T2 construct: Factor XIII is transformed into its active form Factor XIIIa by thrombin in the presence of calcium ions; from tissue; host or cells: human plasma
T2 sequence (P00488 39-732 limits assumed): T1 sequence (P00488 39-732)
Description: The assay was changed by replacing the mercaptoethanol with aprotinin at a final concentration of 2 μg/ml, and dimethylcasein (DMC) was used instead of casein.

[4] = Normal rat biodistribution; type: in vivo; conditions: i.v., male Wistar rats, Mean±SD n=3
Description: The resolution of a clot image is dependant on the combination of rate of incorporation of the radiopharmaceutical and its blood/tissues clearance rate. For this reason the biodistribution of several compounds has been determined in rats. Male Wistar (100-150 g) rats were injected i.v. with 0.1-0.2 ml of radiolabelled tracer solution (8 MBq/ml) and dissected at different times post-injection. The % ID in each of the selected tissues was measured. Some animals were kept in metabolism cages to be able to determine the % ID excreted in urine and faeces. The dissection times used for the majority of the agents was 2, 15, 30, 60, 240 min. Data are shown as % ID, Mean±SD, (n=3).

CC(=NO)C(C)(C)NCC(C)(CNC(=O)c1ccc(S(=O)(=O)NCCCCCN)cc1)CNC(C)(C)C(C)=NO (stereo not shown) [Compound 3, 3,3,6,9,9-pentamethyl-6-(4-(N-(5-aminopentyl)amidosulphonyl)benzamidomethyl)-4,8-diazaundecane-2,10-dione dioxime]
% specific uptake* (human plasma clots [1]): 19% | % retained in plasma clot assay (with thrombin) (human plasma clots [1]): 22% | % retained in plasma clot assay (no thrombin) (human plasma clots [2]): 3.0% | Clot/Blood [3]: 2 | Clot/Heart [3]: 3.4 | Clot/Liver [3]: 0.23 | Clot/Lung [3]: 2.2 | % ID/g (clot uptake) [3]: 0.10 ± 0.02 % ID/g | Relative conc (cpm/g of clot by dose/g animal) [3]: 0.37 ± 0.1 | % specific DMC casein uptake (Factor XIIIa): 40% | % ID Blood ([4]; 2 min post-injection): 19.29 ± 1.7 % ID | % ID GI Tract ([4]; 2 min post-injection): 10.1 ± 1.2 % ID | % ID Heart ([4]; 2 min post-injection): 0.51 + 0.08 % ID | % ID Kidney ([4]; 2 min post-injection): 5.55 + 1 % ID | % ID Liver ([4]; 2 min post-injection): 19.34 ± 0.8 % ID | % ID Lung ([4]; 2 min post-injection): 1.43 ± 0.16 % ID | % ID Muscle ([4]; 2 min post-injection): 23.6 ± 0.9 % ID | % ID Urine ([4]; 2 min post-injection): 0.06 ± 0.02 % ID | % ID Blood ([4]; 15 min post-injection): 1.45 ± 0.38 % ID | % ID GI Tract ([4]; 15 min post-injection): 70 + 3.4 % ID | % ID Kidney ([4]; 15 min post-injection): 2.1 ± 0.8 % ID | % ID Liver ([4]; 15 min post-injection): 7.79 ± 1.16 % ID | % ID Lung ([4]; 15 min post-injection): 0.23 ± 0.12 % ID | % ID Muscle ([4]; 15 min post-injection): 4.87 ± 0.6 % ID | % ID Urine ([4]; 15 min post-injection): 5.01 ± 2.53 % ID | % ID Blood ([4]; 30 min post-injection): 0.59 ± 0.07 % ID | % ID GI Tract ([4]; 30 min post-injection): 76.5 ± 5.6 % ID | % ID Kidney ([4]; 30 min post-injection): 2.09 ± 1.87 % ID | % ID Liver ([4]; 30 min post-injection): 1.95 ± 0.35 % ID | % ID Lung ([4]; 30 min post-injection): 0.03 + 0.04 % ID | % ID Muscle ([4]; 30 min post-injection): 1.53 ± 0.71 % ID | % ID Urine ([4]; 30 min post-injection): 14.42 ± 3.78 % ID | % ID Blood ([4]; 60 min post-injection): 0.31 ± 0.02 % ID | % ID GI Tract ([4]; 60 min post-injection): 79.9 ± 2.9 % ID | % ID Kidney ([4]; 60 min post-injection): 0.57 ± 0.12 % ID | % ID Liver ([4]; 60 min post-injection): 1.54 ± 0.29 % ID | % ID Lung ([4]; 60 min post-injection): 0.07 ± 0.02 % ID | % ID Muscle ([4]; 60 min post-injection): 1.14 ± 0.48 % ID | % ID Urine ([4]; 60 min post-injection): 14.66 ± 2.83 % ID | % ID Blood ([4]; 240 min post-injection): 0.11 ± 0.07 % ID | % ID GI Tract ([4]; 240 min post-injection): 83.5 ± 2.2 % ID | % ID Kidney ([4]; 240 min post-injection): 0.45 ± 0.04 % ID | % ID Liver ([4]; 240 min post-injection): 1.35 ± 0.06 % ID | % ID Lung ([4]; 240 min post-injection): 0.14 + 0.24 % ID | % ID Muscle ([4]; 240 min post-injection): 0.8 ± 0.17 % ID | % ID Urine ([4]; 240 min post-injection): 12.31 ± 1.93 % ID

CC(=NO)C(C)(C)NCCN(CCNC(=O)c1ccc(S(=O)(=O)NCCCCCN)cc1)CCNC(C)(C)C(C)=NO [Compound 16, 3,3,11,11-tetramethyl-7-(4-N-(5-aminopentyl)-amidosulphonyl)benzamidoethyl-4,7,10-triazatridecane-2,12-dione dioxime]
% specific uptake* (human plasma clots [1]): 1.2% | % retained in plasma clot assay (with thrombin) (human plasma clots [1]): 2% | % retained in plasma clot assay (no thrombin) (human plasma clots [2]): 0.8% | Clot/Blood [3]: 1.7 | Clot/Heart [3]: 3.8 | Clot/Liver [3]: 0.37 | Clot/Lung [3]: 2.1 | % ID/g (clot uptake) [3]: 0.27 ± 0.06 % ID/g | Relative conc (cpm/g of clot by dose/g animal) [3]: 0.93 ± 0.16 | % specific DMC casein uptake (Factor XIIIa): 1% | % ID Blood ([4]; 2 min post-injection): 17.8 ± 1.78 % ID | % ID GI Tract ([4]; 2 min post-injection): 6.61 ± 0.43 % ID | % ID Heart ([4]; 2 min post-injection): 0.44 ± 0.09 % ID | % ID Kidney ([4]; 2 min post-injection): 10.55 ± 1.1 % ID | % ID Liver ([4]; 2 min post-injection): 5.61 ± 0.23 % ID | % ID Lung ([4]; 2 min post-injection): 1.53 ± 0.12 % ID | % ID Muscle ([4]; 2 min post-injection): 32.9 ± 0.97 % ID | % ID Urine ([4]; 2 min post-injection): 1.74 ± 1.05 % ID | % ID Blood ([4]; 30 min post-injection): 2.20 ± 0.5 % ID | % ID GI Tract ([4]; 30 min post-injection): 27.3 ± 3.45 % ID | % ID Heart ([4]; 30 min post-injection): 0.06 ± 0.01 % ID | % ID Kidney ([4]; 30 min post-injection): 3.47 ± 0.71 % ID | % ID Liver ([4]; 30 min post-injection): 5.15 ± 0.75 % ID | % ID Lung ([4]; 30 min post-injection): 0.31 ± 0.08 % ID | % ID Muscle ([4]; 30 min post-injection): 4.63 ± 0.25 % ID | % ID Urine ([4]; 30 min post-injection): 48.0 ± 2.22 % ID | % ID Blood ([4]; 60 min post-injection): 0.38 ± 0.14 % ID | % ID GI Tract ([4]; 60 min post-injection): 31.6 ± 6.4 % ID | % ID Heart ([4]; 60 min post-injection): 0.01 ± 0.01 % ID | % ID Kidney ([4]; 60 min post-injection): 1.80 ± 0.65 % ID | % ID Liver ([4]; 60 min post-injection): 3.07 ± 0.47 % ID | % ID Lung ([4]; 60 min post-injection): 0.09 ± 0.03 % ID | % ID Muscle ([4]; 60 min post-injection): 1.51 ± 0.53 % ID | % ID Urine ([4]; 60 min post-injection): 58.2 ± 8.87 % ID | % ID Blood ([4]; 240 min post-injection): 0.04 ± 0.04 % ID | % ID GI Tract ([4]; 240 min post-injection): 36.5 ± 1.5 % ID | % ID Heart ([4]; 240 min post-injection): 0.00 % ID | % ID Kidney ([4]; 240 min post-injection): 1.06 ± 0.06 % ID | % ID Liver ([4]; 240 min post-injection): 2.01 ± 0.11 % ID | % ID Lung ([4]; 240 min post-injection): 0.04 ± 0.00 % ID | % ID Muscle ([4]; 240 min post-injection): 0.55 ± 0.08 % ID | % ID Urine ([4]; 240 min post-injection): 58.9 ± 1.66 % ID
